Assay results taken from patent publication EP0705259B1, “PHENYRROLE DERIVATIVES AND THEIR USE AS DOPAMINE D3 ANTAGONISTS” (SMITHKLINE BEECHAM PLC, priority 1993, dated 1995).
Structures can show the parent of a compound that is named as a salt.

Target: T1, human D3 dopamine receptors (Homo sapiens, UniProt P35462)
T1 construct: expressed in transfected cells; host or cells: CHO cells (crude cell membranes)
Test: biochemical
Type: binding
Details: human D3 receptor; CHO cell membranes, 0.1 nM [125I] iodosulpride, 30 min at 37°C
Protocol: Cultures were grown as monolayers or in suspension in standard cell culture media. Cells were recovered by scraping (from monolayers) or by centrifugation (from suspension cultures), and were washed two or three times by suspension in phosphate buffered saline followed by collection by centrifugation. Cell pellets were stored frozen at -40°C. Crude cell membranes were prepared by homogenisation followed by high-speed centrifugation, and characterisation of cloned receptors achieved by radioligand binding.
Cell pellets were gently thawed at room temperature, and resuspended in about 20 volumes of ice-cold 50 mM Tris salts (pH 7.4 @ 37°C), 20mM EDTA, 0.2 M sucrose. The suspension was homogenised using an Ultra-Turrax (TM) at full speed for 15 sec. The homogenate was centrifuged at 18,000 r.p.m for 20 min at 4°C in a Sorvall RC5C centrifuge. The membrane pellet was resuspended in ice-cold 50 mM Tris salts (pH 7.4 @ 37°C), using an Ultra-Turrax (TM), and recentrifuged at 18,000 r.p.m for 15 min at 4°C in a Sorvall RC5C. The membranes were washed two more times with ice-cold 50 mM Tris salts (pH 7.4 @ 37°C). The final pellet was resuspended in 50 mM Tris salts (pH 7.4 @ 37°C), and the protein content determined using bovine serum albumin as a standard (Bradford, M. M. (1976) Anal. Biochem. 72, 248-254).
Crude cell membranes were incubated with 0.1 nM [^125I] iodosulpride (∼2000 Ci/mmol; Amersham, U. K.), and the test compound in a buffer containing 50 mM Tris salts (pH 7.4 @ 37°C), 120 mM NaCl, 5 mM KCl, 2 mM CaCl2, 1 mM MgCl2, 0.1% (w/v) bovine serum albumin, in a total volume of 1 ml for 30 min at 37°C. Following incubation with the test compound, samples were filtered using a Brandel Cell Harvester (TM), and washed three times with ice-cold 50 mM Tris salts (pH 7.4 @ 37°C), 120 mM NaCl, 5 mM KCl, 2 mM CaCl2, 1 mM MgCl2. The radioactivity on the filters was measured using a Cobra (TM) gamma counter (Canberra Packard). Non-specific binding was defined as the radioligand binding remaining after incubation in the presence of 100 µM iodosulpride. For competition curves, 14 concentrations (half-log dilutions) of competing cold drug were used.
Competition curves were analysed simultaneously whenever possible using non-linear least-squares fitting procedures, capable of fitting one, two or three site models.

T1 sequence (P35462 whole entry): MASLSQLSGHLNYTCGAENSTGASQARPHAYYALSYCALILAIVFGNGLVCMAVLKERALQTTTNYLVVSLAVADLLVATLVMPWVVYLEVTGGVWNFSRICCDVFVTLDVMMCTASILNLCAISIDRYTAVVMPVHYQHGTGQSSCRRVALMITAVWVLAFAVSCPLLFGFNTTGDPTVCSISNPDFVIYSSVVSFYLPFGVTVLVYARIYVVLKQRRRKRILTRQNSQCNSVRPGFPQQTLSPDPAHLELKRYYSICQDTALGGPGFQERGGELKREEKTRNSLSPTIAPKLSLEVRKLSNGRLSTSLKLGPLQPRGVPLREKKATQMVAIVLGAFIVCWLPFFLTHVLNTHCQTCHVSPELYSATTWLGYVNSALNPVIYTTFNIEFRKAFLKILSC

SMILES | IC50 [nM]
CCS(=O)(=O)c1ccc(OC)c(-c2ccc(CN3CCCCC[C@H]3c3ccccc3)[nH]2)c1 [Example 11, 2-(5-Ethylsulphonyl-2-methoxyphenyl)-5-(1-(2-(S)-phenylazacycloheptyl)methyl)-1H-pyrrole, oxalate] | 1 to 50
COc1ccc(S(=O)(=O)N2CCOCC2)cc1-c1ccc(CN2CCCCC[C@@H]2c2ccccc2)[nH]1 [Example 13, 2-(2-Methoxy-5-(4-morpholinyl)sulphonylphenyl)-5-(1-(2-(R)-phenylazacycloheptyl)methyl)-1H-pyrrole, oxalate] | 1 to 50

The remaining lines, values ahead:

IC50 [nM] | SMILES
1 to 50 | CCS(=O)(=O)c1ccc(OC)c(-c2ccc(CN3CCCCCC3c3ccccc3)[nH]2)c1 (racemic) [Example 3, 2-(5-Ethylsulphonyl-2-methoxyphenyl)-5-(1-(2-(R,S)-phenylazacycloheptyl)-methyl)-1H-pyrrole, hydrochloride]
1 to 50 | CCS(=O)(=O)c1cc(Br)c(OC)c(-c2ccc(CN3CCCCCC3c3ccccc3)[nH]2)c1 (racemic) [Example 6, 2-(3-Bromo-5-ethylsulphonyl-2-methoxyphenyl)-5-(1-(2-(R,S)-phenylazacycloheptyl)methyl)-1H-pyrrole, hydrochloride]
1 to 50 | CCS(=O)(=O)c1ccc(OC)c(-c2ccc(CN3CCCCC[C@@H]3c3ccccc3)[nH]2)c1 [Example 10, 2-(5-Ethylsulphonyl-2-methoxyphenyl)-5-(1-(2-(R)-phenylazacycloheptyl)methyl)-1H-pyrrole, oxalate]
